Values quoted from earlier work as cited in patent US9629846B1, “Nutritional supplements for women desiring to become pregnant, and pregnant and nursing women” (Argent Development Group, LLC, priority 2013, dated 2017).

What was measured:
[1] = dietary iron, heme versus non-heme
[2] = nutrient depletion

absorption [1] [%]	Molecule	effect on folate, magnesium and Vitamin B12 levels [2]
30	Heme iron	
	CN(C)C(=N)N=C(N)N [metformin]	reduce folate, magnesium, and Vitamin B12 levels
